This experiment is described as follows: Inhibitory activity against hydrolysis of Gly-Pro-pNa by Dipeptidyl peptidase IV purified from CD26-negative C8166 cells.

Usually IC50 stands for the concentration at which inhibition is half-maximal.

Compound `CCCCCCCC[S+](CCCCCCCC)Cc1ccc2cc1C(=O)NCC(=O)NCC(=O)NCCCC[C@H](N)C(=O)N1CCC[C@H]1C(=O)N2` [Cyclo(Lys(alphaH2+)-Pro-Aba-[CH2SOct2-]-Gly2-), 2CF3COO-] displayed an IC50 of 630 nM.

Values taken from BindingDB's records for doi:10.1021/jm970640l (University of Versailles Saint-Quentin-en-Yvelines, 1998).
